Source: the supplement of paper PMC11061612

Columns and labels:
[1] = system: KYSE-270 (Esophageal Squamous Cell Carcinoma); assay: Bliss excess, mean over the matrix (fraction); higher = more synergy
Outline: (§1)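 Bliss excess equals the observed combination effect minus the expected value EA + EB − EA·EB, where EA and EB are the effects of each agent alone. Combination Emax is the second-highest inhibition within the matrix. Inhibition was scaled from CellTiter-Glo 2.0 luminescence, with 0 set by vehicle wells and 1 by blank wells, after 72 hours of two-drug dosing of cells plated in 1536-well plates.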

[2] = system: SK-GT-4 (Esophageal Adenocarcinoma); assay: as above
Outline: as §1

[3] = system: CW-2 (Colorectal Carcinoma); assay: as above
Outline: as §1

[4] = system: KU812 (Chronic Myelogenous Leukemia); assay: as above
Outline: as §1

[5] = system: OCI-AML3 (Acute Myeloid Leukemia); assay: as above
Outline: as §1

[6] = system: NCI-H520 (Squamous Cell Lung Carcinoma); assay: as above
Outline: as §1

[7] = system: KP-3 (Pancreatic Carcinoma); assay: as above
Outline: as §1

M059J (Glioblastoma) [8] = assay: as above
Outline: as §1

[9] = system: DMS-114 (Small Cell Lung Carcinoma); assay: as above
Outline: as §1

[10] = system: MN-60 (B-Lymphoblastic Leukemia); assay: as above
Outline: as §1

SJSA-1 (Osteosarcoma) [11] = assay: as above
Outline: as §1

[12] = system: NCI-H526 (Small Cell Lung Carcinoma); assay: as above
Outline: as §1

[13] = system: NCCIT (Other Solid Carcinomas); assay: as above
Outline: as §1

[14] = system: ST486 (Burkitt's Lymphoma); assay: as above
Outline: as §1

[15] = system: T-T (Esophageal Squamous Cell Carcinoma); assay: as above
Outline: as §1

[16] = system: COR-L279 (Small Cell Lung Carcinoma); assay: as above
Outline: as §1

NCI-H2731 (Mesothelioma) [17] = assay: as above
Outline: as §1

[18] = system: VMRC-RCZ (Kidney Carcinoma); assay: as above
Outline: as §1

[19] = system: NCI-H929 (Plasma Cell Myeloma); assay: as above
Outline: as §1

[20] = system: NCI-H3122 (Lung Adenocarcinoma); assay: as above
Outline: as §1

[21] = system: MOG-G-CCM (Low Grade Glioma); assay: as above
Outline: as §1

[22] = system: KYSE-270 (Esophageal Squamous Cell Carcinoma); assay: combination Emax (second highest fraction inhibited in the dose matrix, 72 h); higher = more inhibition; extreme values may be limits of the assay
Outline: as §1

[23] = system: SK-GT-4 (Esophageal Adenocarcinoma); assay: as above
Outline: as §1

[24] = system: CW-2 (Colorectal Carcinoma); assay: as above
Outline: as §1

[25] = system: KU812 (Chronic Myelogenous Leukemia); assay: as above
Outline: as §1

[26] = system: OCI-AML3 (Acute Myeloid Leukemia); assay: as above
Outline: as §1

[27] = system: NCI-H520 (Squamous Cell Lung Carcinoma); assay: as above
Outline: as §1

[28] = system: KP-3 (Pancreatic Carcinoma); assay: as above
Outline: as §1

M059J (Glioblastoma) [29] = assay: as above
Outline: as §1

[30] = system: DMS-114 (Small Cell Lung Carcinoma); assay: as above
Outline: as §1

[31] = system: MN-60 (B-Lymphoblastic Leukemia); assay: as above
Outline: as §1

SJSA-1 (Osteosarcoma) [32] = assay: as above
Outline: as §1

[33] = system: NCI-H526 (Small Cell Lung Carcinoma); assay: as above
Outline: as §1

[34] = system: NCCIT (Other Solid Carcinomas); assay: as above
Outline: as §1

[35] = system: ST486 (Burkitt's Lymphoma); assay: as above
Outline: as §1

[36] = system: T-T (Esophageal Squamous Cell Carcinoma); assay: as above
Outline: as §1

[37] = system: COR-L279 (Small Cell Lung Carcinoma); assay: as above
Outline: as §1

NCI-H2731 (Mesothelioma) [38] = assay: as above
Outline: as §1

[39] = system: VMRC-RCZ (Kidney Carcinoma); assay: as above
Outline: as §1

[40] = system: NCI-H929 (Plasma Cell Myeloma); assay: as above
Outline: as §1

[41] = system: NCI-H3122 (Lung Adenocarcinoma); assay: as above
Outline: as §1

[42] = system: MOG-G-CCM (Low Grade Glioma); assay: as above
Outline: as §1

Compound: N#Cc1cnc(Nc2cc(NC[C@H]3CNCCO3)c(C(F)(F)F)cn2)cn1 [SRA737] + C=CCn1c(=O)c2cnc(Nc3ccc(N4CCN(C)CC4)cc3)nc2n1-c1cccc(C(C)(C)O)n1 [AZD1775] (first compound max 10 µM, partner max 1 µM)
- Bliss excess [1]: 0.136
- Bliss excess [2]: 0.003
- Bliss excess [3]: 0.0162
- Bliss excess [4]: 0.0668
- Bliss excess [5]: 0.171
- Bliss excess [6]: 0.055
- Bliss excess [7]: 0.0086
- Bliss excess (M059J (Glioblastoma) [8]): 0.073
- Bliss excess [9]: -0.0231
- Bliss excess [10]: -0.0125
- Bliss excess (SJSA-1 (Osteosarcoma) [11]): 0.0091
- Bliss excess [12]: 0.0145
- Bliss excess [13]: 0.0855
- Bliss excess [14]: 0.0356
- Bliss excess [15]: 0.0665
- Bliss excess [16]: 0.116
- Bliss excess (NCI-H2731 (Mesothelioma) [17]): 0.0007
- Bliss excess [18]: 0.0259
- Bliss excess [19]: 0.0295
- Bliss excess [20]: 0.0718
- Bliss excess [21]: 0.0229
- combination Emax [22]: 0.991
- combination Emax [23]: 0.565
- combination Emax [24]: 0.499
- combination Emax [25]: 0.796
- combination Emax [26]: 0.934
- combination Emax [27]: 0.755
- combination Emax [28]: 0.294
- combination Emax (M059J (Glioblastoma) [29]): 0.659
- combination Emax [30]: 0.229
- combination Emax [31]: 0.642
- combination Emax (SJSA-1 (Osteosarcoma) [32]): 0.535
- combination Emax [33]: 0.753
- combination Emax [34]: 0.821
- combination Emax [35]: 0.987
- combination Emax [36]: 0.671
- combination Emax [37]: 0.834
- combination Emax (NCI-H2731 (Mesothelioma) [38]): 0.357
- combination Emax [39]: 0.51
- combination Emax [40]: 0.724
- combination Emax [41]: 0.724
- combination Emax [42]: 0.683
